Assays:
[1] = Plasma concentrations in four patients on fosfomycin-based combination therapy (pilot clinical feasibility study, LCMS/MS); conditions: Patient 001; piperacillin/tazobactam 4.5 g every 6 h as a 1-h infusion
Protocol: For 20 µL of plasma/CAMHB sample, 20 µL of water and 20 µL of stable-isotope as internal standard (IS) were added and vortexed. 180 µL of acetonitrile was added for protein precipitation and subsequently removed by centrifugation (12,700 rpm for 10 min at 25 °C). Finally, 15 µL of the supernatant was diluted with 225 µL formic acid in water (0.1% v/v), and 10 µL was injected for LCMS/MS analysis. For the calibration curve and QCs, 20 µL of the corresponding antibiotic standard working solution was added instead of water.
Samples were analyzed using a Nexera X2 LCMS 8060 system (Shimadzu, Kyoto, Japan). […] Electrospray ionization employing positive and negative ion mode with multiple reaction monitoring was used for analyte quantification (Table S1). Data were acquired and analyzed using Shimadzu LabSolutions (Version 5.97).
The assay method described in this paper has been applied to a pilot clinical feasibility study to evaluate the proportion of patients with sub-optimal β-lactam levels and the need for dose adjustments in infected patients with unpredictable pharmacokinetics. We described a case series of four patients where they received in vitro guided antibiotic combination therapy using a fosfomycin-based combination regimen to treat a carbapenem-resistant Gram-negative bacteria infection. These four patients were recruited into the BLAST-2 study as the combination regimen contains a β-lactam antibiotic. In this case series, two were undergoing intermittent hemodialysis, and two patients had normal renal function. In the two patients on hemodialysis, they were on a dosing regimen of 8 g of fosfomycin on dialysis days (3 g at least 4 h before dialysis session and 5 g after completion of dialysis). The remaining two patients received 8 g of fosfomycin given every 8 h as a prolonged infusion.
Blood samples (2–3 mL from an indwelling catheter) were collected four times over a dosing interval of the β-lactam dosing regimen and centrifuged (10 min at 3000 rpm) (Eppendorf 5425R). The resultant plasma was stored (within 15 min of collection) at −80 °C until assay.

[2] = Long-term storage stability of antibiotics in combination with fosfomycin spiked in plasma/CAMHB (−30 °C, −80 °C); assay type: physicochemical; conditions: combination with fosfomycin; for Mean accuracy (%), Table S15 / Mean accuracy (%), Table S17 / Mean accuracy (%), Table S16 / Mean accuracy (%), Table S18: CAMHB; for Mean accuracy (%), Table S15 / Mean accuracy (%), Table S11: 2 weeks at -30 °C; for Mean accuracy (%), Table S17 / Mean accuracy (%), Table S13: 2 weeks at -80 °C; for Mean accuracy (%), Table S16 / Mean accuracy (%), Table S12: 4 weeks at -30 °C; for Mean accuracy (%), Table S18 / Mean accuracy (%), Table S14: 4 weeks at -80 °C; for Mean accuracy (%), Table S11 / Mean accuracy (%), Table S13 / Mean accuracy (%), Table S12 / Mean accuracy (%), Table S14: plasma
Protocol: (§1) The stability of fosfomycin in combination with other antibiotics in plasma/CAMHB was evaluated under various operational conditions. Spiked plasma/CAMHB samples were evaluated at 7 h and 15 h in the autosampler at 4 °C. Long-term stability was evaluated up to 4 weeks of antibiotic-spiked plasma/CAMHB samples at LQC, MQC, and HQC concentrations stored at −30 °C and −80 °C.

[3] = 32-day stability of stock solutions stored at −80 °C; assay type: physicochemical; conditions: stock solution stored at -80 °C; peak area Day 32 vs Day 1
Protocol: Stability of stock solutions
All stock solutions of antibiotics and their corresponding stable-isotope variants were measured prior to cold storage at -80 °C and tested at 32 days later.
Stability was determined by comparing the peak area of each drug between its Day 1 and Day 32 measurement. Acceptable criteria for stability was met if the […]

[4] = Autosampler stability at 4 °C of extracted antibiotic-spiked plasma/CAMHB samples; conditions: for Mean accuracy (%), Table S8 / Mean accuracy (%), Table S10: CAMHB extracted samples; for Mean accuracy (%), Table S8 / Mean accuracy (%), Table S7: 7 h autosampler 4 °C; for Mean accuracy (%), Table S10 / Mean accuracy (%), Table S9: 15 h autosampler 4 °C; for Mean accuracy (%), Table S7 / Mean accuracy (%), Table S9: plasma extracted samples
Protocol: as §1

With `C[C@]1(Cn2ccnn2)[C@H](C(=O)O)N2C(=O)C[C@H]2S1(=O)=O` [Tazobactam, tazobactam] the “Mean total plasma concentration (range)” value [1] was 20.9 to 58.3 mg/L, the “Mean accuracy (%), Table S15” value ([2]; HQC (nominal as E15)) was 96.9% and the “Mean accuracy (%), Table S15” value ([2]; LQC (nominal as E13)) was 93.8%. For the same compound, the “Mean accuracy (%), Table S15” value ([2]; MQC (nominal as E14)) was 90.4%, the “Mean accuracy (%), Table S17” value ([2]; HQC (nominal as E15)) was 108.9% and the “Mean accuracy (%), Table S17” value ([2]; LQC (nominal as E13)) was 103.8%. The “Mean accuracy (%), Table S17” value ([2]; MQC (nominal as E14)) was 103.7%, the “Mean accuracy (%), Table S16” value ([2]; HQC (nominal as E15)) was 91.0% and the “Mean accuracy (%), Table S16” value ([2]; LQC (nominal as E13)) was 69.7%. For the same compound, the “Mean accuracy (%), Table S16” value ([2]; MQC (nominal as E14)) was 84.1%, the “Mean accuracy (%), Table S18” value ([2]; HQC (nominal as E15)) was 106.4% and the “Mean accuracy (%), Table S18” value ([2]; LQC (nominal as E13)) was 105.4%. The “Mean accuracy (%), Table S18” value ([2]; MQC (nominal as E14)) was 103.3%, the “Mean accuracy (%), Table S11” value ([2]; HQC (nominal as E15)) was 106.0% and the “Mean accuracy (%), Table S11” value ([2]; LQC (nominal as E13)) was 107.9%. The “Mean accuracy (%), Table S11” value ([2]; MQC (nominal as E14)) was 104.6%, the “Mean accuracy (%), Table S13” value ([2]; HQC (nominal as E15)) was 95.4% and the “Mean accuracy (%), Table S13” value ([2]; LQC (nominal as E13)) was 108.8%. The “Mean accuracy (%), Table S13” value ([2]; MQC (nominal as E14)) was 104.7%, the “Mean accuracy (%), Table S12” value ([2]; HQC (nominal as E15)) was 96.4% and the “Mean accuracy (%), Table S12” value ([2]; LQC (nominal as E13)) was 102.0%. For the same compound, the “Mean accuracy (%), Table S12” value ([2]; MQC (nominal as E14)) was 98.7%, the “Mean accuracy (%), Table S14” value ([2]; HQC (nominal as E15)) was 100.5% and the “Mean accuracy (%), Table S14” value ([2]; LQC (nominal as E13)) was 100.7%. For the same compound, the “Mean accuracy (%), Table S14” value ([2]; MQC (nominal as E14)) was 101.3%, the “32 Day Stability (%)” value [3] was 93.04% and the “Mean accuracy (%), Table S8” value ([4]; HQC (nominal as E15)) was 109.6%. The “Mean accuracy (%), Table S8” value ([4]; LQC (nominal as E13)) was 109.4%, the “Mean accuracy (%), Table S8” value ([4]; MQC (nominal as E14)) was 107.5% and the “Mean accuracy (%), Table S10” value ([4]; HQC (nominal as E15)) was 111.6%. For the same compound, the “Mean accuracy (%), Table S10” value ([4]; LQC (nominal as E13)) was 112.3%, the “Mean accuracy (%), Table S10” value ([4]; MQC (nominal as E14)) was 107.7% and the “Mean accuracy (%), Table S7” value ([4]; HQC: nominal mg/L CAZ 150, FEP 200, PIP 250, ATM 300, MEM 200, DOR 175, LVX 30, CEFT 250, TZB 87.5, TGC 20, AVI 30, FOF 1000) was 111.3%. The “Mean accuracy (%), Table S7” value ([4]; LQC: nominal 1 mg/L (levofloxacin, avibactam 0.5; fosfomycin 10)) was 113.6%, the “Mean accuracy (%), Table S7” value ([4]; MQC: nominal mg/L CAZ 75, FEP 100, PIP 150, ATM 150, MEM 100, DOR 87.5, LVX 15, CEFT 125, TZB 43.75, TGC 10, AVI 15, FOF 500) was 104.1% and the “Mean accuracy (%), Table S9” value ([4]; HQC (nominal as E15)) was 107.9%. The “Mean accuracy (%), Table S9” value ([4]; LQC (nominal as E13)) was 107.0% and the “Mean accuracy (%), Table S9” value ([4]; MQC (nominal as E14)) was 98.1%.

Source: article PMC8772704, “Quantification of Fosfomycin in Combination with Nine Antibiotics in Human Plasma and Cation-Adjusted Mueller-Hinton II Broth via LCMS” (Antibiotics, 2022)
